Measurements published in ChEMBL document CHEMBL1208670, “Synthesis, characterization and antimicrobial studies of 2-(4-methoxy-phenyl)-5-methyl-4-(2-arylsulfanyl-ethyl)-2,4-dihydro-[1,2,4] triazolo-3-ones and their corresponding sulfones” (2010).
Values after ≈ are worked out from the molar mass of the structure shown.

Tests used:
Type in all cases: functional
Bacillus subtilis = test: Antibacterial activity against Bacillus subtilis by twofold serial dilution method
Pseudomonas aeruginosa = test: Antibacterial activity against Pseudomonas aeruginosa by twofold serial dilution method
Staphylococcus aureus = test: Antibacterial activity against Staphylococcus aureus by twofold serial dilution method
Saccharomyces cerevisiae = test: Antifungal activity against Saccharomyces cerevisiae by twofold serial dilution method
Escherichia coli = test: Antibacterial activity against Escherichia coli by twofold serial dilution method
Aspergillus niger = test: Antifungal activity against Aspergillus niger by twofold serial dilution method
Candida albicans = test: Antifungal activity against Candida albicans by twofold serial dilution method
Rhizopus arrhizus = test: Antifungal activity against Rhizopus oryzae by twofold serial dilution method
Aspergillus flavus = test: Antifungal activity against Aspergillus flavus by twofold serial dilution method
[1] = tested on: Staphylococcus epidermidis; test: Antibacterial activity against Staphylococcus epidermidis by twofold serial dilution method

Row | Compound | MIC (Bacillus subtilis) [µg/mL] | MIC (Pseudomonas aeruginosa) [µg/mL] | MIC (Staphylococcus aureus) [µg/mL] | MIC (Saccharomyces cerevisiae) [µg/mL] | MIC (Escherichia coli) [µg/mL] | MIC (Aspergillus niger) [µg/mL] | MIC (Candida albicans) [µg/mL] | MIC (Rhizopus arrhizus) [µg/mL] | MIC (Aspergillus flavus) [µg/mL] | MIC [1] [µg/mL]
1 | COc1ccc(-n2nc(C)n(CCSc3ccc(F)cc3)c2=O)cc1 | 150 (≈ 417 µM) | 75 (≈ 209 µM) | 75 (≈ 209 µM) | 150 (≈ 417 µM) | 150 (≈ 417 µM) | 150 (≈ 417 µM) | 150 (≈ 417 µM) | 150 (≈ 417 µM) | 150 (≈ 417 µM) | 75 (≈ 209 µM)
2 | COc1ccc(-n2nc(C)n(CCSc3cccc(C(F)(F)F)c3)c2=O)cc1 | 150 (≈ 366 µM) | 75 (≈ 183 µM) | 9.75 (≈ 23.8 µM) | 150 (≈ 366 µM) | 9.75 (≈ 23.8 µM) | 150 (≈ 366 µM) | 150 (≈ 366 µM) | 18.8 (≈ 45.8 µM) | 150 (≈ 366 µM) | 150 (≈ 366 µM)
3 | COc1ccc(-n2nc(C)n(CCSc3ccc(Br)cc3)c2=O)cc1 | 75 (≈ 178 µM) | 75 (≈ 178 µM) | 150 (≈ 357 µM) | 150 (≈ 357 µM) | 150 (≈ 357 µM) | 75 (≈ 178 µM) | 150 (≈ 357 µM) | 75 (≈ 178 µM) | 75 (≈ 178 µM) | 150 (≈ 357 µM)
4 | COc1ccc(-n2nc(C)n(CCSc3cccc(OC)c3)c2=O)cc1 | 18.8 (≈ 50.5 µM) | 75 (≈ 202 µM) | 75 (≈ 202 µM) | 150 (≈ 404 µM) | 18.8 (≈ 50.5 µM) | 37.5 (≈ 101 µM) | 150 (≈ 404 µM) | 37.5 (≈ 101 µM) | 75 (≈ 202 µM) | 150 (≈ 404 µM)
5 | COc1ccc(-n2nc(C)n(CCSc3ccc(N)cc3)c2=O)cc1 | 75 (≈ 210 µM) | 150 (≈ 421 µM) | 75 (≈ 210 µM) | 150 (≈ 421 µM) | 150 (≈ 421 µM) | 37.5 (≈ 105 µM) | 150 (≈ 421 µM) | 37.5 (≈ 105 µM) | 75 (≈ 210 µM) | 75 (≈ 210 µM)
6 | COc1ccc(-n2nc(C)n(CCSc3ccccc3)c2=O)cc1 | 75 (≈ 220 µM) | 75 (≈ 220 µM) | 75 (≈ 220 µM) | 150 (≈ 439 µM) | 37.5 (≈ 110 µM) | 37.5 (≈ 110 µM) | 150 (≈ 439 µM) | 75 (≈ 220 µM) | 75 (≈ 220 µM) | 37.5 (≈ 110 µM)
7 | COc1ccc(-n2nc(C)n(CCSc3nnc(-c4ccc(Cl)cc4)o3)c2=O)cc1 | 150 (≈ 338 µM) | 150 (≈ 338 µM) | 75 (≈ 169 µM) | 150 (≈ 338 µM) | 150 (≈ 338 µM) | 150 (≈ 338 µM) | 150 (≈ 338 µM) | 150 (≈ 338 µM) | 150 (≈ 338 µM) | 150 (≈ 338 µM)
8 | COc1ccc(-n2nc(C)n(CCS(=O)(=O)c3ccccc3F)c2=O)cc1 | 150 (≈ 383 µM) | 37.5 (≈ 95.8 µM) | 37.5 (≈ 95.8 µM) | 150 (≈ 383 µM) | 150 (≈ 383 µM) | 37.5 (≈ 95.8 µM) | 150 (≈ 383 µM) | 18.8 (≈ 47.9 µM) | 75 (≈ 192 µM) | 75 (≈ 192 µM)
9 | COc1ccc(-n2nc(C)n(CCS(=O)(=O)c3cccc(F)c3)c2=O)cc1 | 75 (≈ 192 µM) | 150 (≈ 383 µM) | 18.8 (≈ 47.9 µM) | 150 (≈ 383 µM) | 9.38 (≈ 24 µM) | 37.5 (≈ 95.8 µM) | 150 (≈ 383 µM) | 37.5 (≈ 95.8 µM) | 75 (≈ 192 µM) | 37.5 (≈ 95.8 µM)
10 | COc1ccc(-n2nc(C)n(CCS(=O)(=O)c3ccc(F)cc3)c2=O)cc1 | 75 (≈ 192 µM) | 75 (≈ 192 µM) | 75 (≈ 192 µM) | 150 (≈ 383 µM) | 37.5 (≈ 95.8 µM) | 37.5 (≈ 95.8 µM) | 150 (≈ 383 µM) | 75 (≈ 192 µM) | 75 (≈ 192 µM) | 37.5 (≈ 95.8 µM)
11 | COc1ccc(-n2nc(C)n(CCS(=O)(=O)c3cccc(C(F)(F)F)c3)c2=O)cc1 | 37.5 (≈ 85 µM) | 18.8 (≈ 42.5 µM) | 18.8 (≈ 42.5 µM) | 150 (≈ 340 µM) | 37.5 (≈ 85 µM) | 37.5 (≈ 85 µM) | 150 (≈ 340 µM) | 75 (≈ 170 µM) | 75 (≈ 170 µM) | 75 (≈ 170 µM)
12 | COc1ccc(-n2nc(C)n(CCS(=O)(=O)c3ccc(Br)cc3)c2=O)cc1 | 75 (≈ 166 µM) | 150 (≈ 332 µM) | 9.38 (≈ 20.7 µM) | 150 (≈ 332 µM) | 150 (≈ 332 µM) | 37.5 (≈ 82.9 µM) | 150 (≈ 332 µM) | 37.5 (≈ 82.9 µM) | 75 (≈ 166 µM) | 150 (≈ 332 µM)
13 | COc1ccc(-n2nc(C)n(CCS(=O)(=O)c3ccccc3)c2=O)cc1 | 150 (≈ 402 µM) | 75 (≈ 201 µM) | 37.5 (≈ 100 µM) | 150 (≈ 402 µM) | 150 (≈ 402 µM) | 150 (≈ 402 µM) | 150 (≈ 402 µM) | 150 (≈ 402 µM) | 150 (≈ 402 µM) | 75 (≈ 201 µM)
14 | COc1ccc(-n2nc(C)n(CCSc3ccccc3F)c2=O)cc1 | 37.5 (≈ 104 µM) | 37.5 (≈ 104 µM) | 9.75 (≈ 27.1 µM) | 150 (≈ 417 µM) | 75 (≈ 209 µM) | 150 (≈ 417 µM) | 37.5 (≈ 104 µM) | 9.75 (≈ 27.1 µM) | 150 (≈ 417 µM) | 150 (≈ 417 µM)
15 | COc1ccc(-n2nc(C)n(CCSc3cccc(F)c3)c2=O)cc1 | 150 (≈ 417 µM) | 37.5 (≈ 104 µM) | 37.5 (≈ 104 µM) | 150 (≈ 417 µM) | 150 (≈ 417 µM) | 150 (≈ 417 µM) | 150 (≈ 417 µM) | 37.5 (≈ 104 µM) | 150 (≈ 417 µM) | 75 (≈ 209 µM)
16 | C[C@@H]1[C@H](O)[C@@H](C)/C=C/C=C/C=C/C=C/C=C/C=C/C=C/[C@H](O[C@@H]2O[C@H](C)[C@@H](O)[C@H](N)[C@@H]2O)C[C@@H]2O[C@](O)(C[C@@H](O)C[C@@H](O)[C@H](O)CC[C@@H](O)C[C@@H](O)CC(=O)O[C@H]1C)C[C@H](O)[C@H]2C(=O)O [AMPHOTERICIN B] |  |  |  | 6.25 (≈ 6.76 µM) |  | 1.56 (≈ 1.69 µM) | 6.25 (≈ 6.76 µM) | 1.56 (≈ 1.69 µM) | 6.25 (≈ 6.76 µM) | 
17 | CC1(C)S[C@@H]2[C@H](NC(=O)Cc3ccccc3)C(=O)N2[C@H]1C(=O)O [PENICILLIN G] | 1.53 (≈ 4.56 µM) | 12.5 (≈ 37.4 µM) | 6.25 (≈ 18.7 µM) |  | 7.81 (≈ 23.4 µM) |  |  |  |  | 3.12 (≈ 9.35 µM)
18 | CN[C@@H]1[C@H](O[C@H]2[C@H](O[C@H]3[C@H](O)[C@@H](O)[C@H](N=C(N)N)[C@@H](O)[C@@H]3N=C(N)N)O[C@@H](C)[C@]2(O)C=O)O[C@@H](CO)[C@H](O)[C@H]1O [STREPTOMYCIN] | 6.25 (≈ 10.7 µM) | 3.12 (≈ 5.37 µM) | 1.56 (≈ 2.68 µM) |  | 3.12 (≈ 5.37 µM) |  |  |  |  | 1.56 (≈ 2.69 µM)
